Assay: Oxygen adsorption-desorption and oxygen affinity (P1/2) of the porphinatoiron(II) complex in toluene solution, by visible absorption spectrum
Format: binding
Procedure: 46.2 μg (0.03 μmol) of 2-8-(2-methyl-1-imidazolyl)octanoyloxymethyl-5,10,15,20-tetrakis(α,α,α,α-o-(1-methylcyclohexylamido)phenyl)porphinatoiron(III) complex-bromide synthesized in Example 7 was prepare into 10 ml of toluene anhydride solution and the atmosphere in the system was replaced with nitrogen. Then, the solution was mixed and stirred for 2 hours with an aqueous dithionous acid solution in a heterogeneous system to reduce the iron to the iron(II) state. Under nitrogen atmosphere, the toluene layer was extracted, dried over sodium sulfate anhydride and filtrated. The resulting toluene solution was transferred to and sealed in a measuring cell. Thus, a toluene solution of 2-8-(2-methyl-1-imidazolyl)octanoyloxymethyl-5,10,15,20-tetrakis(α,α,α,α-o-(1-methylcyclohexylamido)phenyl)porphinatoiron(II) complex was obtained. The visible absorption spectrum of this solution was λmax: 441, 539, 558 nm, and corresponded to that of a five-coordinated deoxy-type complex in which one imidazole was coordinated.
When oxygen gas was blown into this solution, the spectrum immediately changed to λmax: 424, 552 nm.
Consequently, the adsorption-desorption of oxygen could be continuously carried out by repeating the operation of blowing oxygen and then nitrogen.

2-8-(2-methyl-1-imidazolyl)octanoyloxymethyl-5,10,15,20-tetrakis(α,α,α,α-o-(1-methylcyclohexylamido)phenyl)porphinatoiron(II) complex [Example 11]
oxygen affinity (partial pressure of oxygen when 50% of the entire porphinatoiron is oxygenated (=P1/2)) (25° C.): 20 torr
reversibility of adsorption-desorption of oxygen (oxygen blown, then nitrogen gas for 1 minute, visible absorption spectrum): adsorption-desorption of oxygen occurred reversibly

From US7125862B2, “Porphyrin-metal complexes and oxygen infusions containing the same” (Japan Science and Technology Agency, priority 2001, dated 2006)
